According to patent publication US20250339531A1, “DUX4 POLYPEPTIDES AND NUCLEIC ACIDS FOR TREATING INFLAMMATORY AND AUTOIMMUNE CONDITIONS” (Fred Hutchinson Cancer Center, priority 2021, published 2025):

Tested on: proteins that co-immunoprecipitated with DUX4-CTD constructs expressed in MB135 myoblasts
Assay: LC-MS of proteins co-immunoprecipitated with DUX4-CTD (Table 1) and western validation
Assay type: binding, human
Set-up: key to 4. mL1dL2 + Dox + IFNG / 4. + IFNG mix / 4. longCTD + Dox + IFNG / 3. + IFNg + Dox longCTD / 3. + Dox longCTD / 3. + IFNG longCTD: peptide-spectrum matches (PSMs) per protein
Settings: for 4. longCTD + Dox + IFNG: LC-MS counts of the listed protein co-immunoprecipitated with DUX4-CTD bait longCTD; for 3. + Dox longCTD / 3. + IFNg + Dox longCTD / 3. + IFNG longCTD: bait longCTD; for 3. + Dox longCTD: experiment 3, Dox only; for 3. + IFNg + Dox longCTD: experiment 3, IFNg + Dox; for SUM of PSMS: sum over all samples; for 3. + IFNG longCTD: experiment 3, IFNG only, no doxycycline (bait at background level)
Excerpt: As an unbiased method to identify proteins that interact with the C-terminal region of DUX4, liquid chromatography mass spectroscopy (LC-MS) was used to identify proteins that co-immunoprecipitated with DUX4-CTD constructs expressed in MB135 myoblasts. In the first experiment, MB135iDUX4-CTD cells were used, either untreated, treated with doxycycline alone, or with both doxycycline and IFNG. In the second experiment, MB135iDUX4-CTD and MB135iDUX4mL1dL2 cells were used, both treated with doxycycline and IFNG, compared to these two cell lines untreated and combined as a control. Proteins with a minimum of 2 peptide spectrum matches (PSMs) in at least one sample that were identified in both experiments were assigned to one of ten categories (see Methods) to separate candidate interactors from other categories that might be co-purified because of obligate interactions (e.g., proteasome or ribosome) or might be less likely to be physiologically relevant (e.g., cytoskeletal proteins). Candidate interactors were then ranked based on the total PSMs for that protein across all samples.
Centrifugation at 2500 rcf at 4° C. for 5 min pelleted the nuclei, supernatant was discarded, and nuclei resuspended in 1 mL IP buffer pH 7.4 (25 mM Tris-HCl pH 7.5, 175 mM NaCl, 1 mM EDTA, 0.2% NP-40, 5% glycerol) and incubated for 1 hour at 4° C. with rotation then spun at 21000 rcf for 10 minutes at 4° C. to pellet insoluble debris. Protein concentration was determined using the Pierce BCA Protein Assay Kit (ThermoFisher, 23225). An equivalent amount of protein per sample was pre-cleared with Dynabeads Protein G (Invitrogen) bound to mouse IgG (Abcam #131368) for 1 hour at 4° C. with rotation. FLAG-tagged constructs were then immunoprecipitated with Dynabeads Protein G beads coupled to mouse anti-FLAG M2 mAb (Sigma F3165) for 3 hours at 4° C. with rotation. Beads were washed 3× with 1 mL IP buffer and eluted by adding 2× NuPage LDS Sample Buffer (Thermo Fisher, diluted from 4× with PBS) to the beads and heating for 10 minutes at 70° C.
For LC-MS, anti-FLAG immunoprecipitation was performed with beads cross-linked to the anti-FLAG antibody and the proteins competitively eluted with FLAG peptide. Eluted protein samples were electrophoresed into a NuPage 4-12% Bis-Tris gel, excised, and processed by the Fred Hutchinson Cancer Research Center Proteomics Core. Samples were reduced, alkylated, digested with trypsin, desalted, and run on the Orbitrap Eclipse Tribid Mass Spectrometer (Thermo Fisher). Proteomics data were analyzed using Proteome Discoverer 2.4 against a Uniprot human database that included common contaminants using Sequest HT and Percolator for scoring. […] Proteins that were identified in at least one sample from both independent experiments with at least 2 PSMs in one sample were assigned to one of ten categories: 1, candidates; 2, cytoskeletal associated; 3, cytoskeletal; 4, ribosome/translation associated; 5, proteasome associated; 6, membrane or extracellular; ER, golgi, or vesicle associated; 8, lipid metabolism; 9, chaperones; 10, nuclear import or nuclear membrane associated. The proteins in category 1 were further investigated for interactions with DUX4.

[1] = LC-MS value per protein co-immunoprecipitated from MB135 myoblasts, + IFNG mix sample (no Dox), kind of count not given
[2] = LC-MS value per protein co-immunoprecipitated with DUX4-CTD construct mL1dL2 in MB135 myoblasts, + Dox + IFNG, kind of count not given
[3] = LC-MS counts of the listed protein co-immunoprecipitated with DUX4-CTD bait mL1dL2, experiment 4, Dox + IFNG
[4] = LC-MS counts of the listed protein in anti-FLAG co-IP, experiment 4, IFNG, no doxycycline, mix, MB135 myoblasts

Substance	4. mL1dL2 + Dox + IFNG [2]	4. longCTD + Dox + IFNG (experiment 4, Dox + IFNG)	3. + Dox longCTD	3. + IFNg + Dox longCTD	SUM of PSMS	further results
HNRNPK	12					4. + IFNG mix [1]: 3
P52294		2	4	8	15	4. mL1dL2 + Dox + IFNG [3]: 1
Q13283		2	1	2	7	
P63010			8	26	35	
Q13200		4		3	11	
NPM1	4					4. + IFNG mix [1]: 2
P11940		3		13	21	
P38646		7	1	10	30	4. mL1dL2 + Dox + IFNG [3]: 11; 4. + IFNG mix [4]: 1
P11142		105	27	54	299	4. mL1dL2 + Dox + IFNG [3]: 90; 4. + IFNG mix [4]: 21; 3. + IFNG longCTD: 2
P30153		2	5	14	28	3. + IFNG longCTD: 2
P21333		10	1	12	30	
G3BP1	1					4. + IFNG mix [1]: 1
P48681		2	4	4	18	3. + IFNG longCTD: 1
TUBB4B	47					4. + IFNG mix [1]: 13
PRKDC	5					4. + IFNG mix [1]: 11
YBX3	7					
Q09666		1	8	4	14	
XRCC5	1					
FLNC	2					4. + IFNG mix [1]: 1
O60684		1	4	4	15	4. mL1dL2 + Dox + IFNG [3]: 6

Substance	4. mL1dL2 + Dox + IFNG [2]	4. longCTD + Dox + IFNG (experiment 4, Dox + IFNG)	3. + Dox longCTD	3. + IFNg + Dox longCTD	SUM of PSMS	further results
Q15149		7	5	21	52	
Q00839			4	9	14	
Q9Y490		3	1	1	5	
P10644		3		4	11	4. mL1dL2 + Dox + IFNG [3]: 4
STAT3	1					
Q9ULV4		7	4	13	24	
Q14315		12	2	7	24	
USP9X	7					
P11021		44	22	62	209	4. mL1dL2 + Dox + IFNG [3]: 49; 4. + IFNG mix [4]: 31; 3. + IFNG longCTD: 1
P47929		6	1	1	8	
P08123			1		4	3. + IFNG longCTD: 1
PTBP1	1					
Q93008		3		5	15	
CLTC	8					
FLNA	4					4. + IFNG mix [1]: 3
MYH9	1					4. + IFNG mix [1]: 10
EEF1G	1					
COL1A2						4. + IFNG mix [1]: 2
PSME2	4					
